Results on two compounds are retold here after ChEMBL document CHEMBL1121785, “Comparison of solution conformational preferences for the hallucinogens bufotenin and psilocin using 360-MHz proton NMR spectroscopy” (J Med Chem, 1981).

Common to all, as to format: physicochemical
Series [1] can be described thus: Partition coefficient of octanol and water was determined.
Series [2] is described as follows: Partition coefficient (logP). Particulars: octanol/water.
Series [3] is described as follows: True partition coefficient corrected for ionization was determined. Particulars: octanol/water.

`CN(C)CCc1c[nH]c2ccc(O)cc12` [BUFOTENINE]: in series [1], the Poct stood at 0.16. Moreover, the logP – broadly, a log measure of how a compound divides between an organic and an aqueous phase – in series [2] was 1.19.
As for `CN(C)CCc1c[nH]c2cccc(O)c12` [PSILOCIN], the pKa (in general, the negative logarithm of the acid dissociation constant) in series [3] is 3.3. In series [1], this compound came in with a Poct of 0.68. Besides, the logP in series [2] stood at 1.45.
